Source: patent publication US8481584B2, “1H-thieno[2,3-c]pyrazole derivatives useful as kinase inhibitors” (Nerviano Medical Sciences S.R.L., priority 2004, dated 2013)

biological target: T1, Aurora-2 (Homo sapiens, UniProt O14965); experiment: Inhibition assay of Aurora-2 activity (SPA technology); format: biochemical; conditions: screened according to the methods of the pharmacology section; read-out: IC50 values for Aurora-2 inhibition
T1 sequence (O14965 1-403): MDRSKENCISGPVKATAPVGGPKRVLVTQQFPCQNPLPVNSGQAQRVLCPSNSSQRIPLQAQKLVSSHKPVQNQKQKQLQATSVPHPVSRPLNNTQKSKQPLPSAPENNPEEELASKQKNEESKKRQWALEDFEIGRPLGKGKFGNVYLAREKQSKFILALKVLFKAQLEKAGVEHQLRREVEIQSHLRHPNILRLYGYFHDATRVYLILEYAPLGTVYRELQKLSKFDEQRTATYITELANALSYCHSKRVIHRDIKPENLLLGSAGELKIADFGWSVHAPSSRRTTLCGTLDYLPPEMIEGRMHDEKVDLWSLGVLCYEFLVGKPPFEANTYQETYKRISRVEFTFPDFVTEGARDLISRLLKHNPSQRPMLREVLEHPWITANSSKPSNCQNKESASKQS
Method: The inhibiting activity and the potency of selected compounds is determined through a method of assay based on the use of the SPA technology (Amersham Pharmacia Biotech).
The assay consists of the transfer of radioactivity labelled phosphate moiety by the kinase to a biotinylated substrate. The resulting 33P-labelled biotinylated product is allowed to bind to streptavidin-coated SPA beads (biotin capacity 130 pmol/mg), and light emitted was measured in a scintillation counter.
Inhibition Assay of Aurora-2 Activity
After 60 minutes at room temperature incubation, reaction was stopped and biotinylated peptide captured by adding 100 μl of bead suspension.
Stratification: 100 μl of CsCl2 5 M were added to each well and let stand 4 hour before radioactivity was counted in the Top-Count instrument.
Experimental data were analyzed by the computer program GraphPad Prizm using the four parameter logistic equation: y=bottom+(top−bottom)/(1+10^((logIC50−x)*slope)) where x is the logarithm of the inhibitor concentration, y is the response; y starts at bottom and goes to top with a sigmoid shape.

IC50, < 0.02 µM:
Cn1cccc1C(=O)Nc1n[nH]c2sc(C(=O)NC(C)(C)c3ccccc3)cc12 [Compound 21, N-(1-methyl-1-phenylethyl)-3-{[(1-methyl-1H-pyrrol-2-yl)carbonyl]amino}-1H-thieno[2,3-c]pyrazole-5-carboxamide]
CC[C@@H](NC(=O)c1cc2c(NC(=O)c3cccs3)n[nH]c2s1)c1ccccc1 [Compound 20, N-[(1R)-1-phenylpropyl]-3-[(thien-2-ylcarbonyl)amino]-1H-thieno[2,3-c]pyrazole-5-carboxamide]
CC(C)N(C)Cc1ccc(C(=O)Nc2n[nH]c3sc(C(=O)NC(C)(C)c4ccccc4)cc23)cc1 [Compound 64, 3-{4-[(Isopropyl-methyl-amino)-methyl]benzoylamino}-1H-thieno[2,3-c]pyrazole-5-carboxylic acid (1-methyl-1-phenyl-ethyl)-amide]
CC(C)(NC(=O)c1cc2c(NC(=O)c3ccc(N4CCOCC4)cc3)n[nH]c2s1)c1ccccc1F [Compound 148, 3-(4-Morpholin-4-yl-benzoylamino)-1H-thieno[2,3-c]pyrazole-5-carboxylic acid [1-(2-fluoro-phenyl)-1-methyl-ethyl]-amide]
O=C(Nc1n[nH]c2sc(C(=O)NC3(c4ccccc4)CC3)cc12)c1cccs1 [Compound 18, N-(1-phenylcyclopropyl)-3-[(thien-2-ylcarbonyl)amino]-1H-thieno[2,3-c]pyrazole-5-carboxamide]
CN1CCN(c2ccc(C(=O)Nc3n[nH]c4sc(C(=O)NC(C)(C)c5ccccc5F)cc34)cc2)CC1 [Compound 141, 3-[4-(4-Methyl-piperazin-1-yl)-benzoylamino]-1H-thieno[2,3-c]pyrazole-5-carboxylic acid[1-(2-fluoro-phenyl)-1-methyl-ethyl]amide]
CC(C)(NC(=O)c1cc2c(NC(=O)c3cccs3)n[nH]c2s1)c1ccc(F)cc1 [Compound 151, 3-[(Thiophene-2-carbonyl)-amino]-1H-thieno[2,3-c]pyrazole-5-carboxylic acid [1-(4-fluoro-phenyl)-1-methyl-ethyl]-amide]
CC(C)(NC(=O)c1cc2c(NC(=O)c3ccc(CN4CCOCC4)cc3)n[nH]c2s1)c1cccc(F)c1 [Compound 42, 3-(4-Morpholin-4-ylmethyl-benzoylamino)-1H-thieno[2,3-c]pyrazole-5-carboxylic acid [1-(3-fluoro-phenyl)-1-methyl-ethyl]-amide]
CC(C)(NC(=O)c1cc2c(NC(=O)c3ccc(CN4CCCC4)cc3)n[nH]c2s1)c1ccc(F)cc1 [Compound 58, 3-(4-Pyrrolidin-1-ylmethyl-benzoylamino)-1H-thieno[2,3-c]pyrazole-5-carboxylic acid [1-(4-fluoro-phenyl)-1-methyl-ethyl]-amide]
COc1cccc(C(C)(C)NC(=O)c2cc3c(NC(=O)c4ccc(N5CCOCC5)cc4)n[nH]c3s2)c1 [Compound 140, 3-(4-Morpholin-4-yl-benzoylamino)-1H-thieno[2,3-c]pyrazole-5-carboxylic acid [1-(3-methoxy-phenyl)-1-methyl-ethyl]-amide]
CC(C)(NC(=O)c1cc2c(NC(=O)c3ccc(N4CCOCC4)cc3)n[nH]c2s1)c1cccc(F)c1 [Compound 149, 3-(4-Morpholin-4-yl-benzoylamino)-1H-thieno[2,3-c]pyrazole-5-carboxylic acid [1-(3-fluoro-phenyl)-1-methyl-ethyl]-amide]
CC[C@@H](NC(=O)c1cc2c(NC(=O)c3ccc(N4CCN(C)CC4)cc3)n[nH]c2s1)c1ccccc1 [Compound 30, 3-{[4-(4-methylpiperazin-1-yl)benzoyl]amino}-N-[(1R)-1-phenylpropyl]-1H-thieno[2,3-c]pyrazole-5-carboxamide]
CN1CCN(c2ccc(C(=O)Nc3n[nH]c4sc(C(=O)N[C@H](CN5CCCC5)c5ccccc5)cc34)cc2)CC1 [Compound 32, 3-{[4-(4-methylpiperazin-1-yl)benzoyl]amino}-N-[(1S)-1-phenyl-2-pyrrolidin-1-ylethyl]-1H-thieno[2,3-c]pyrazole-5-carboxamide]
CN1CCN(c2ccc(C(=O)Nc3n[nH]c4sc(C(=O)NC(C)(C)c5cccc(Cl)c5)cc34)cc2)CC1 [Compound 132, 3-[4-(4-Methyl-piperazin-1-yl)-benzoylamino]-1H-thieno[2,3-c]pyrazole-5-carboxylic acid[1-(3-chloro-phenyl)-1-methyl-ethyl]amide]
O=C(Nc1n[nH]c2sc(C(=O)N[C@H](CN3CCCC3)c3ccccc3)cc12)c1cccs1 [Compound 19, N-[(1S)-1-phenyl-2-pyrrolidin-1-ylethyl]-3-[(thien-2-ylcarbonyl)amino]-1H-thieno[2,3-c]pyrazole-5-carboxamide]
CC(C)(NC(=O)c1cc2c(NC(=O)c3ccc(CN4CCCC4)cc3)n[nH]c2s1)c1ccccc1 [Compound 37, 3-(4-Pyrrolidin-1-ylmethyl-benzoylamino)-1H-thieno[2,3-c]pyrazole-5-carboxylic acid (1-methyl-1-phenyl-ethyl)-amide]
O=C(Nc1n[nH]c2sc(C(=O)NC3(c4ccccc4)CCCC3)cc12)c1cccs1 [Compound 122, 3-[(Thiophene-2-carbonyl)-amino]-1H-thieno[2,3-c]pyrazole-5-carboxylic acid (1-phenyl-cyclopentyl)-amide]
CC(C)(NC(=O)c1cc2c(NC(=O)c3ccc(N4CCOCC4)cc3)n[nH]c2s1)c1ccc(F)cc1 [Compound 150, 3-(4-Morpholin-4-yl-benzoylamino)-1H-thieno[2,3-c]pyrazole-5-carboxylic acid [1-(4-fluoro-phenyl)-1-methyl-ethyl]-amide]
CC(C)(NC(=O)c1cc2c(NC(=O)c3ccc(CN4CCNCC4)cc3)n[nH]c2s1)c1ccccc1 [Compound 47, 3-(4-piperazin-1-ylmethyl-benzoylamino)-1H-thieno[2,3-c]pyrazole-5-carboxylic acid (1-methyl-1-phenyl-ethyl)-amide]
CC(C)(NC(=O)c1cc2c(NC(=O)c3ccc(Cn4ccnc4)cc3)n[nH]c2s1)c1ccccc1 [Compound 48, 3-(4-Imidazol-1-ylmethyl-benzoylamino)-1H-thieno[2,3-c]pyrazole-5-carboxylic acid (1-methyl-1-phenyl-ethyl)-amide]
CC(C)(NC(=O)c1cc2c(NC(=O)c3ccc(N4CCS(=O)(=O)CC4)cc3)n[nH]c2s1)c1ccccc1 [Compound 144, 3-[4-(1,1-Dioxo-thiomorpholin-4-yl)-benzoylamino]-1H-thieno[2,3-c]pyrazole-5-carboxylic acid (1-methyl-1-phenyl-ethyl)-amide]
CC(C)(NC(=O)c1cc2c(NC(=O)c3ccco3)n[nH]c2s1)c1ccccc1 [Compound 24, 3-(2-furoylamino)-N-(1-methyl-1-phenylethyl)-1H-thieno[2,3-c]pyrazole-5-carboxamide]
O=C(Nc1n[nH]c2sc(C(=O)N[C@H](CN3CCOCC3)c3ccccc3)cc12)c1ccc(N2CCOCC2)cc1 [Compound 6, 3-[(4-morpholin-4-ylbenzoyl)amino]-N-[(1S)-2-morpholin-4-yl-1-phenylethyl]-1H-thieno[2,3-c]pyrazole-5-carboxamide]
CN(C)CCOc1ccc(C(=O)Nc2n[nH]c3sc(C(=O)NC(C)(C)c4ccccc4F)cc23)cc1 [Compound 126, 3-[4-(2-Dimethylamino-ethoxy)-benzoylamino]-1H-thieno[2,3-c]pyrazole-5-carboxylic acid [1-(2-fluoro-phenyl)-1-methyl-ethyl]-amide]
CC(C)(NC(=O)c1cc2c(NC(=O)c3ccc(CNC4CCCC4)cc3)n[nH]c2s1)c1ccccc1 [Compound 65, 3-(4-Cyclopentylaminomethyl-benzoylamino)-1H-thieno[2,3-c]pyrazole-5-carboxylic acid (1-methyl-1-phenyl-ethyl)-amide]
CC(C)(NC(=O)c1cc2c(NC(=O)c3ccc(CN4CCCCC4)cc3)n[nH]c2s1)c1ccc(F)cc1 [Compound 59, 3-(4-Piperidin-1-ylmethyl-benzoylamino)-1H-thieno[2,3-c]pyrazole-5-carboxylic acid [1-(4-fluoro-phenyl)-1-methyl-ethyl]-amide]
CC(C)NCc1ccc(C(=O)Nc2n[nH]c3sc(C(=O)NC(C)(C)c4ccccc4)cc23)cc1 [Compound 40, 3-[4-(Isopropylamino-methyl)-benzoylamino]-1H-thieno[2,3-c]pyrazole-5-carboxylic acid (1-methyl-1-phenyl-ethyl)-amide]
